For assay [1], the target named is T1, LIMK2KD (Homo sapiens, UniProt P53671).
T1 construct: The cDNA coding for LIMK2 residues 330 to 632 was PCR amplified; His6 (N, cleaved yes); made in house; host or cells: baculovirus; Sf9 for virus, TriEx insect cells for expression
Description: Differential (dynamic) scanning fluorimetry (DSF) assay, LIMK2KD. It is filed as binding. Particulars: LIMK2KD, compound 10 µM, single shot; for ΔTm at 10 µM: read-out: TM Shift LIMK2 (K).

For assay [2], the target named is T2, LIMK1KD (Homo sapiens, UniProt P53667).
T2 construct: His6 (N, cleaved yes); made in house; host or cells: baculovirus; Sf9 for virus, TriEx insect cells for expression
T2 sequence (P53667 330-637): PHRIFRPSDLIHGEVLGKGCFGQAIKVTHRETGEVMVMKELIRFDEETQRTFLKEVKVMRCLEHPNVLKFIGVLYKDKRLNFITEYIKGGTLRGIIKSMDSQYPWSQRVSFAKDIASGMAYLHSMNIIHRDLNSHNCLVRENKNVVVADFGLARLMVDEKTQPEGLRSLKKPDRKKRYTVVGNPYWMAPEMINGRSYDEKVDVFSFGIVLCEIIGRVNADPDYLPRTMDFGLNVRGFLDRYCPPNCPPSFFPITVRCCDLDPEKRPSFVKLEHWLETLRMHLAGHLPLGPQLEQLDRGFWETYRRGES
Description: Differential (dynamic) scanning fluorimetry (DSF) assay, LIMK1KD. As to conditions: 2 µM LIMK1KD, compound 10 µM, single shot; for ΔTm at 10 µM: read-out: TM Shift LIMK1 (K). It is filed as binding.

This is an account of results in paper PMC6835155, “Lessons from LIMK1 enzymology and their impact on inhibitor design” (Biochemical Journal, 2019).

Where a name gives a salt, the structure may show the parent alone.

T1 sequence (P53671 330-632): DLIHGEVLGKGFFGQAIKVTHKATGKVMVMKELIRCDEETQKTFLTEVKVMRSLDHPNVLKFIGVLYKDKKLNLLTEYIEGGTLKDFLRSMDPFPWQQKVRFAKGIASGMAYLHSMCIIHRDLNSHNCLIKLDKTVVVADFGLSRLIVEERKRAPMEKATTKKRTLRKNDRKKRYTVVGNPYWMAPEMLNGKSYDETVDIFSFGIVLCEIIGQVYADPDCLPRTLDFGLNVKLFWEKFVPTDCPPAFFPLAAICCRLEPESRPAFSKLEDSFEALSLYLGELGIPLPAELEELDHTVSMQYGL

`CNCc1ccc(-c2cc(-c3nc(-c4ccc(S(=O)(=O)C(C)C)cc4)cnc3N)on2)cc1` [VE-822]: the ΔTm at 10 µM in assay [1] is 0.5 °C; in assay [2], -0.5 °C.

Consider `O=S(=O)(c1cccc2cnccc12)N1CCCNCC1` [Fasudil (HA-1077) HCl, Fasudil], for which the figures for the ΔTm at 10 µM in assay [1] and in assay [2] were 0.9 °C and 0.8 °C, respectively.

Turning to `Nc1nc(N)c(N=O)c(OCC2CCCCC2)n1` [NU6027], the ΔTm at 10 µM is -0.9 °C in assay [1] and 0.8 °C in assay [2].

Consider `CS(=O)(=O)N1CCN(Cc2cc3nc(-c4cccc5[nH]ncc45)nc(N4CCOCC4)c3s2)CC1` [GDC-0941], for which, in assay [1] (10 µM), the “TM Shift LIMK2 (K)” value was -0.4 K. For the same molecule, in assay [2], the “TM Shift LIMK1 (K)” value was -0.3 K.

Regarding `COCCNCc1ccc(-c2cc3nccc(Oc4ccc(NC(=S)NC(=O)Cc5ccc(F)cc5)cc4F)c3s2)nc1` [MGCD-265], the ΔTm at 10 µM in assay [1] is 1.1 °C; in assay [2], 3.6 °C.

For the molecule `Cc1ccc(NC(=O)c2ccc(CN3CCN(C)CC3)cc2)cc1Nc1nccc(-c2cccnc2)n1` [Imatinib Mesylate (STI571), Imatinib Mesylate], the “TM Shift LIMK2 (K)” value in assay [1] (10 µM) amounted to 0.8 K. The “TM Shift LIMK1 (K)” value in assay [2] came out at 0.0 K.

Turning to `C=CC(=O)Nc1cccc(Nc2nc(Nc3ccc(Oc4ccnc(C(=O)NC)c4)cc3)ncc2F)c1` [CNX-774], the “TM Shift LIMK2 (K)” value in assay [1] was determined as 1.2 K. Besides, in assay [2], the “TM Shift LIMK1 (K)” value is 1.6 K.

Consider `CC(C)NC[C@@H](C(=O)N1CCN(c2ncnc3c2[C@H](C)C[C@H]3O)CC1)c1ccc(Cl)cc1` [Ipatasertib], for which the “TM Shift LIMK2 (K)” value in assay [1] (10 µM) came out at 2.3 K. In addition, the “TM Shift LIMK1 (K)” value in assay [2] turned out to be 2.3 K.

As to `CO[C@H]1C[C@@H]2CC[C@@H](C)[C@@](O)(O2)C(=O)C(=O)N2CCCC[C@H]2C(=O)O[C@H]([C@H](C)C[C@@H]2CC[C@@H](O)[C@H](OC)C2)CC(=O)[C@H](C)/C=C(\C)[C@@H](O)[C@@H](OC)C(=O)[C@H](C)C[C@H](C)/C=C/C=C/C=C/1C` [Rapamycin (Sirolimus), Rapamycin], the ΔTm at 10 µM in assay [1] is 0 °C; in assay [2], -0.1 °C.

`N#CC1(c2ccc(NC(=O)c3cccnc3NCc3ccncc3)cc2)CCCC1` [Apatinib]: the ΔTm at 10 µM in assay [1] amounted to 3.8 °C; in assay [2] it was 0.2 °C.

Turning to `O=C(NCCCNc1nc(Nc2cccc(NC(=O)N3CCCC3)c2)ncc1I)c1cccs1` [BX-795], the ΔTm at 10 µM worked out at 4.7 °C in assay [1] and 5 °C in assay [2].

In the case of `O=C(O)c1ccc(Nc2ncc3c(n2)-c2ccc(Cl)cc2C(c2c(F)cccc2F)=NC3)cc1` [MLN8054], the ΔTm at 10 µM in assay [1] is 1 °C; in assay [2], -0.4 °C.

Consider `Cc1ccc(-n2nc(C(C)(C)C)cc2NC(=O)Nc2ccc(OCCN3CCOCC3)c3ccccc23)cc1` [Doramapimod], for which, in assay [1] (10 µM), the “TM Shift LIMK2 (K)” value came to 0.7 K. Besides, the ΔTm at 10 µM in assay [1] was found to be 0.9 °C. Also, the results for the “TM Shift LIMK1 (K)” value in assay [2] and in assay [2] (listed as BIRB 796 (Doramapimod)) were -0.1 K and 0.5 K, respectively.

With `CCS(=O)(=O)N1CC(CC#N)(n2cc(-c3ncnc4[nH]ccc34)cn2)C1` [Baricitinib], the ΔTm at 10 µM was 1 °C in assay [1] and 1.6 °C in assay [2].

For `CS(=O)(=O)CCNCc1ccc(-c2ccc3ncnc(Nc4ccc(OCc5cccc(F)c5)c(Cl)c4)c3c2)o1` [Lapatinib (GW-572016) Ditosylate, Lapatinib], the ΔTm at 10 µM amounted to 1.8 °C in assay [1] and 0.2 °C in assay [2].

Consider `Cc1cnc(Nc2ccc(OCCN3CCCC3)cc2)nc1Nc1cccc(S(=O)(=O)NC(C)(C)C)c1` [TG101348 (SAR302503)], for which the “TM Shift LIMK2 (K)” value in assay [1] (10 µM) was 0.7 K. In addition, the “TM Shift LIMK1 (K)” value in assay [2] amounted to 2.0 K.

Regarding `C=CC(=O)Nc1ccc2ncnc(Nc3cccc(Br)c3)c2c1` [PD168393], the “TM Shift LIMK2 (K)” value in assay [1] is recorded as 2.0 K. Also, the “TM Shift LIMK1 (K)” value in assay [2] is on record as 0.4 K.

Turning to `CC1=C(C(=O)Nc2cc3cn[nH]c3cc2F)C(c2ccc(C(F)(F)F)cc2)CC(=O)N1` (centres unmarked) [GSK429286A], the ΔTm at 10 µM turned out to be 1.4 °C in assay [1] and 0.5 °C in assay [2].

Regarding `Cn1c(=O)c(F)c(Nc2ccc(I)cc2F)c2c(=O)n(C[C@@H](O)CO)cnc21` [TAK-733], the ΔTm at 10 µM was 0.3 °C in assay [1] and -0.5 °C in assay [2].

For `O=C(Nc1ccc(OC(F)(F)F)cc1)c1sccc1NCc1ccnc2ccccc12` [OSI-930], the figures for the ΔTm at 10 µM in assay [1] and in assay [2] were 6.2 °C and 0.7 °C, respectively.

Consider `O=c1cc(N2CCOCC2)oc2c1ccc1ccccc12` [NU7026], for which the “TM Shift LIMK2 (K)” value in assay [1] is given as 3.0 K. In assay [2], the “TM Shift LIMK1 (K)” value is recorded as -0.7 K.

With `Cc1cc(F)c(Nc2ncnc3cc(OCc4ccccc4)ccc23)cc1O.Cl` [ZM 323881 HCl], the “TM Shift LIMK2 (K)” value in assay [1] is 2.6 K. The “TM Shift LIMK1 (K)” value in assay [2] was 0.0 K.

Consider `Cc1ccc2nc(NCCN)c3ncc(C)n3c2c1` [BMS-345541], for which the ΔTm at 10 µM was determined as 2.8 °C in assay [1] and 0.4 °C in assay [2].

Regarding `COC(=O)c1ccc2c(c1)NC(=O)/C2=C(\Nc1ccc(N(C)C(=O)CN2CCN(C)CC2)cc1)c1ccccc1` [Nintedanib], the figures for the ΔTm at 10 µM in assay [1] and in assay [2] were 0.3 °C and 1.3 °C, respectively.

On to `CCc1cnn2c(NCc3ccc[n+]([O-])c3)cc(N3CCCC[C@H]3CCO)nc12` [Dinaciclib (SCH727965), Dinaciclib], for which the values for the ΔTm at 10 µM in assay [1] and in assay [2] were 0.6 °C and -0.3 °C, respectively.

In the case of `CN(C)CCOc1ccc(-c2nc(-c3ccncc3)c(-c3ccc4c(c3)CC/C4=N\O)[nH]2)cc1` [SB590885], the ΔTm at 10 µM in assay [1] was determined as 1 °C; in assay [2], 0.1 °C.

As to `CN[C@@H]1C[C@H]2O[C@@](C)([C@@H]1OC)n1c3ccccc3c3c4c(c5c6ccccc6n2c5c31)C(=O)N[C@H]4O` [UCN-01], in assay [1], the “TM Shift LIMK2 (K)” value was 0.7 K. Further, the “TM Shift LIMK1 (K)” value in assay [2] is listed as 1.2 K.

In the case of `CNC(=O)c1cccc(-c2ccc3c(N4CCOC[C@@H]4C)nc(N4CCOC[C@@H]4C)nc3n2)c1` [AZD2014], the ΔTm at 10 µM in assay [1] was -0.3 °C; in assay [2], 0.2 °C.

Regarding `CCC(=O)Nc1cccc(Oc2nc(Nc3ccc(N4CCN(C)CC4)cc3OC)ncc2Cl)c1` [WZ4003], the ΔTm at 10 µM in assay [1] is -0.8 °C; in assay [2], 0.4 °C.

Consider `CC(C)(C)Cn1c(N)nc2ccc(-c3[nH]c(C(C)(C)C)nc3-c3ccc(F)cc3)nc21` [LY2228820], for which, in assay [1] (10 µM), the “TM Shift LIMK2 (K)” value came to 4.4 K. In addition, the “TM Shift LIMK1 (K)” value in assay [2] came out at 2.1 K.

In the case of `COc1cc(N2CCC(N)CC2)ccc1Nc1ncc(Cl)c(-c2c[nH]c3ccccc23)n1` [AZD3463], in assay [1], the “TM Shift LIMK2 (K)” value is recorded as 3.1 K. The “TM Shift LIMK1 (K)” value in assay [2] is 2.5 K.

Regarding `CC(C)(C)c1cc(/C=C(\C#N)C(N)=S)cc(C(C)(C)C)c1O` [Tyrphostin AG 879], the figures for the ΔTm at 10 µM in assay [1] and in assay [2] were 1.2 °C and 0.1 °C, respectively.

As to `CCN(CC)CCCC(C)Nc1nc(C)cc(Nc2ccc3nc(C)cc(N)c3c2)n1` (centres unmarked) [NSC 23766], in assay [1], the “TM Shift LIMK2 (K)” value is reported as -2.2 K. The “TM Shift LIMK1 (K)” value in assay [2] came to 0.0 K.

In the case of `C=CC(=O)Nc1cccc(Sc2nc(Nc3ccc(N4CCN(C)CC4)cc3)ncc2Cl)c1` [WZ8040], in assay [1], the “TM Shift LIMK2 (K)” value turned out to be 5.2 K. Besides, the “TM Shift LIMK1 (K)” value in assay [2] was determined as 3.1 K.

As for `CN1CCN(C2CCN(C(=O)Nc3cc(Oc4ccc(NC(=O)C5(C(=O)Nc6ccc(F)cc6)CC5)c(F)c4)ccn3)CC2)CC1` [Golvatinib (E7050), Golvatinib], the results for the ΔTm at 10 µM in assay [1] and in assay [2] were 1 °C and 3 °C, respectively.

`Cc1[nH]c(/C=C2\C(=O)Nc3ccc(S(=O)(=O)N(C)c4cccc(Cl)c4)cc32)c(C)c1C(=O)N1CCN(C)CC1` [SU11274]: the figures for the ΔTm at 10 µM in assay [1] and in assay [2] were -0.2 °C and 1.4 °C, respectively.
